Patent US20120190814A1, “Thiol Protecting Group” (UCL BUSINESS PLC, priority 2009, published 2012)

Test system: GIRK currents
Assay: patch clamp assay, control treatment with Pertussis toxin or GIRK inhibitor
Format: cell-based, human
Details: Tertiapin 100 nM, pertussis toxin 100 ng/ml overnight
Protocol: HEK 293 cells expressing HKIR3.1/3.2 channel and human somatostatin receptor 2 were treated with these compounds, and whole cell patch-clamp current recordings taken.
Whole cell patch-clamp current recordings were performed with an Axopatch 200B amplifier (Axon Instruments) using fire-polished pipettes with a resistance of 3-4 MΩ pulled from filamented borosilicated glass capillaries (Harvard Apparatus, 1.5 mm OD×1.17 mm ID). Data was acquired and analysed via a Digidata 1322A interface (Axon Instruments) and pCLAMP software (version 8.1, Axon Instruments). A fast perfusion system was used to apply somatostatin and analogues (Rapid Solution Changer, RSC-160, Bio-Logic France). Cells were clamped at −60 mV. The extracellular solution was (mM): NaCl 80, KCl 60, CaCl22, MgCl21, HEPES 10, NaH2PO4 0.33, glucose 10, pH 7.4; while the intracellular solution was (mM): K gluconate 110, KCl 20, NaCl 10, MgCl2 1, MgATP 2, EGTA 2 GTP 0.3, pH 7.4. After agonist application, current activated with a delay “lag” followed by a rapid rise to peak amplitude “time to peak”. After removal of the agonist, the current decays back to baseline. For each cell it was assessed if flow artifacts resulting from the pressure of drug application were present. This was done by applying bath solution from one of the sewer pipes at the beginning of the recordings. […]

Row | Substance | GIRK currents when cells were treated with control inhibitor
1 | Pertussis toxin | currents were largely inhibited
2 | Tertiapin Q | currents were largely inhibited
